Results taken from patent US7429396B2, “Antifungal composition, its fungicidal effect on pathogenic dermatophytes, and process for inhibiting growth of fungi” (Bio-Botanica, Inc., priority 2003, dated 2008).
≈ marks a conversion by molar mass, not a printed value.

Experiments:
Type in all cases: cell-based
[1] = system: all organisms (Epidermophyton floccosum, Trichophyton mentagrophytes, Microsporum canis); assay: Macrodilution broth MIC/MFC, all dermatophytes tested (Example 4); details: for MIC: all dermatophytes
Procedure: (§1) The organisms used included Epidermophyton floccosum ATCC 52066, Trichophyton mentagrophytes ATCC 9533, and Microsporum canis ATCC 36299. The molds were cultured on Oatmeal Agar slants to allow for conidial formation and incubated for 7 days at 25° C. For each mold, 5 ml of sterile 0.85% NaCl was added to each slant, the culture surface was rubbed with a sterile wooden applicator stick, and the suspension was then transferred to a sterile tube. By comparison to the McFarland 0.5 turbidity standard, the suspension was adjusted by adding sterile 0.85% NaCl as necessary. The resulting suspension was c.1×10^8 CFU/ml. Then 300 μl of organism suspension was added to 10 ml of sterile saline, diluting it to c.1×10^6 CFU/ml.
(§2) The Macrodilution broth method was performed using serial two-fold dilutions of RPMI-1640 (Sigma) with L-glutamine but without sodium bicarbonate.
(§3) Six 18×150 tubes of RPMI-1640 were used for each organism tested. Starting with tube 1 containing 20 ml RPMI labeled as 0.250 μl/ml and then tubes 2 through 6 containing 10 ml RPMI labeled as 0.125 μl/ml, 0.06 μl/ml, 0.03 μl/ml, 0.015 μl/ml, and 0.008 μl/ml respectively. • 1. 26 μl of each product of Examples 1-3 was added to 1000 μl DMSO. The final concentration of DMSO is kept below 1%. • 2. 200 μl of the sample dilution (26 μl/ml) was added to tube 1 (20 ml of RPMI-1640) making an initial concentration of 0.250 μl/ml. • 3. A serial dilution was performed, pipetting 10 ml from tube 1 to tube 2; continuing the dilution to tube 6.
(§4) For the Clotrimazole, Mycelex® and Ciclopirox Olamine, ten 18×150 tubes of RPMI-1640 were used for each organism tested. Starting with tube 1 containing 20 ml RPMI labeled 16 μg/ml and then tubes 2 through 10 containing 10 ml RPMI labeled as 8.0 μg/ml, 4.0 μg/ml, 2.0 μg/ml, 1.0 μg/ml, 0.50 μg/ml, 0.25 μg/ml, 0.125 μg/ml, 0.06 μg/ml and 0.03 μg/ml respectively. • 1. 160 mg of active ingredient was added to 100 ml DMSO. • 2. 200 μl of the sample dilution (1600 μg/ml) was added to tube 1 (20 ml of RPMI-1640) making an initial concentration of 16 μg/ml. • 3. A serial dilution was performed, pipetting 10 ml from tube 1 to tube 2; continuing the dilution to tube 10. Inoculation and Incubation
(§5) Once the tubes were arranged according to product, concentration and mold type, 300 μl of appropriate mold inoculum was added to each tube and the tubes were then placed in an incubator at 35° C. along with a purity plate for inoculum verification for each mold. The final mold inoculum level was c.1×10^4 CFU/ml. As controls, one tube with 10 ml RPMI was used for the “Negative Control”, and 3 tubes with 10 ml RPMI plus 300 μl mold inoculum were used for the positive controls (one for each mold).
(§6) Final results were recorded after 7 days. Growth (G) was noted when there was full growth visible (i.e. the tube appeared as cloudy as the positive control tube). Partial activity (P) was recorded when the broth in the tube was less turbid than the positive control tube. No growth (I) was recorded when there was total inhibition and the broth in the tube appeared clear (in comparison with the negative control tube).
(§7) The MIC measures fungistatic activity as the lowest concentration that will inhibit growth of the mold. […] The MIC for an azole is the lowest concentration capable of inhibiting 80% growth, which would be a result of partial inhibition (P), one dilution below full inhibition.
(§8) The MFC measures the lowest concentration of the test agent that will kill the fungi. The fungicidal activity of the products was determined by subculturing 20 μl from tubes with no visible growth onto properly labeled SDA plates. Also 20 μl from the last tube with growth and 20 μl from the positive control tube were subcultured as controls. All plates were incubated at 25° C. for 14 days. The MFC was recorded as the lowest concentration showing no growth or <3 colonies of growth, which equals 99-99.5% killing activity.

[2] = system: Microsporum canis ATCC 36299; assay: Macrodilution broth MIC/MFC test on dermatophytes (Example 4); details: for MIC: Microsporum canis, ATCC36299, read-out: Minimum Inhibitory Concentration (MIC)
Procedure: as §1, §2, §3, §4, §5, §6, §7, §8

[3] = system: Epidermophyton floccosum ATCC 52066; assay: as above; details: for MIC: Epidermophyton floccosum, ATCC52066, read-out: Minimum Inhibitory Concentration (MIC)
Procedure: as §1, §2, §3, §4, §5, §6, §7, §8

[4] = system: Trichophyton mentagrophytes ATCC 9533; assay: as above; details: for MIC: Trichophyton mentagrophytes, ATCC9533, read-out: Minimum Inhibitory Concentration (MIC)
Procedure: as §1, §2, §3, §4, §5, §6, §7, §8

Row | SMILES | MIC to Inhibit all organisms [1] [%] | concentration at which still unable to kill the dermatophytes (MFC) [1] | fungistatic or fungicidal activity [1] | MIC [1] [µg/mL] | growth score, MIC test ([2]; 8.0 μg/ml) | growth score, MIC test ([2]; 16.0 μg/ml) | MIC [2] [µg/mL] | growth score, MIC test ([3]; 8.0 μg/ml) | growth score, MIC test ([3]; 16.0 μg/ml) | MIC [3] [µg/mL] | growth score, MIC test ([4]; 16.0 μg/ml) | MIC [4] [µg/mL] | other results
1 | Cc1cc(C2CCCCC2)n(O)c(=O)c1 [Ciclopirox Olamine] | 0.0016 | greater than 32 μg/ml | fungistatic not fungicidal | 16 (≈ 77.2 µM) | I | I | 4 (≈ 19.3 µM) | I | I | 8 (≈ 38.6 µM) | I | 16 (≈ 77.2 µM) | 
2 | Clc1ccccc1C(c1ccccc1)(c1ccccc1)n1ccnc1 [Clotrimazole] | 0.000006 | greater than 4 μg/ml | fungistatic not fungicidal | 0.06 (≈ 0.174 µM) | I | I | 0.06 (≈ 0.174 µM) | I | I | 0.06 (≈ 0.174 µM) | I | 0.06 (≈ 0.174 µM) | growth score, MIC test ([2]; 0.125 μg/ml): I; growth score, MIC test ([2]; 0.250 μg/ml): I; growth score, MIC test ([2]; 0.50 μg/ml): I; growth score, MIC test ([2]; 1.0 μg/ml): I; growth score, MIC test ([2]; 2.0 μg/ml): I; growth score, MIC test ([2]; 4.0 μg/ml): I; growth score, MIC test ([3]; 0.125 μg/ml): I; growth score, MIC test ([3]; 0.250 μg/ml): I; growth score, MIC test ([3]; 0.50 μg/ml): I; growth score, MIC test ([3]; 1.0 μg/ml): I; growth score, MIC test ([3]; 2.0 μg/ml): I; growth score, MIC test ([3]; 4.0 μg/ml): I; growth score, MIC test ([4]; 0.125 μg/ml): I; growth score, MIC test ([4]; 0.250 μg/ml): I; growth score, MIC test ([4]; 0.50 μg/ml): I; growth score, MIC test ([4]; 1.0 μg/ml): I; growth score, MIC test ([4]; 2.0 μg/ml): I; growth score, MIC test ([4]; 4.0 μg/ml): I; growth score, MIC test ([4]; 8.0 μg/ml): I
